Assay results: patent US20250205158A1, “BIODEGRADABLE LIPIDS AND FORMULATIONS FOR DELIVERY OF MRNA” (Massachusetts Institute of Technology, priority 2023, published 2025)

Assays:
[1] = Ethanol solubility of ionizable lipids; format: physicochemical
Source text: AMG lipids for enhanced mRNA delivery and improved tolerability.

[2] = test system: mice; conditions: FLuc expression in liver and spleen 6 hours after IM injection
Protocol: Evaluation of the LNPs via intramuscular injection. The in vivo potency of the ionizable lipids was screened through intramuscular injection of LNPs loaded with mRNA encoding firefly luciferase protein. These LNPs were formulated with a molar composition of (35:16:46.5:2.5) using one of the synthesized ionizable lipids, DOPE as a helper lipid, cholesterol, and DMPE-PEG respectively. mRNA-loaded LNPs were intramuscularly administered in mice at a dose of 1 μg, and expression of luciferase protein was monitored at 6 hours via IVIS bioluminescent imaging (FIG. 3). […] Without wishing to be bound by theory, increased levels of protein expression may enhance the response to vaccination.
In Vitro and In Vivo Screening of AMG Lipid Library. Following synthesis, the mRNA delivery efficacy of the AMG lipids was evaluated through both in vitro and in vivo screens. To screen the first generation of AMG lipids (FIGS. 11B and 11C), firefly luciferase (FLuc) mRNA was encapsulated into LNPs using a previously reported formulation containing ionizable lipid, 1,2-dioleoyl-sn-glycero-3-phosphoethanolamine (DOPE), cholesterol, and 1,2-dimyristoyl-rac-glycero-3-methoxypolyethylene glycol-2000 (DMG-PEG).^19 C2C12 myoblast cells were treated with these LNPs and FLuc expression was evaluated at 24 hrs. (FIG. 16). […] Each of these batches was then injected IM into the quadriceps of mice, and expression was characterized via IVIS imaging (Screen 1, FIG. 11E).
AMG lipids for enhanced mRNA delivery and improved tolerability. A rational design approach was used to further vary the ionizable lipid structure to enhance the mRNA delivery and immunogenicity. […] The lipid tail structure was varied to promote efficient LNP self-assembly while simultaneously promoting endosomal membrane disruption.^18 Monounsaturated (G41-G44) or fully saturated (GC12-GC18) lipid tails were developed. […] Without wishing to be bound by any particular theory, tail length may impact membrane fusion and endosomal escape.^10,11
Next, the headgroup was further modified to further improve delivery. Headgroups play a multifunctional role including enhancing LNP-mRNA interactions, promoting membrane-LNP fusion and endosomal escape which all contribute to mRNA delivery.^23 A series of similar aza-crown ethers were used to further investigate structure-activity relationship and enhance mRNA delivery. These headgroups featured between three and eight nitrogens linked by varying length of methylene chains. Each of these headgroups were reacted with tail G41 to synthesize a next generation of AMG lipids, which were then formulated with FLuc mRNA and evaluated for mRNA delivery following IM administration in mice (FIG. 12B).

[3] = test system: influenza A/Tasmania/503/2020 virus; experiment: Hemagglutination inhibition (HAI) assay, neutralizing antibody titers after HA mRNA vaccination; format: in vivo, BALB/cJ mice; conditions: female BALB/cJ mice, dose-response vaccination
Protocol: To test this, a dose-response vaccination experiment ranging from […] was performed in female BALB/cJ mice. Neutralizing antibody titers were evaluated using the hemagglutination inhibition (HAI) assay. HAI titers are strongly correlated with vaccine protection and the assay is an FDA approved method for testing influenza vaccine efficacy^38,39 In agreement with the binding antibody titers, higher neutralizing […] were measured across all three tested doses: SM-102 only gave detectable neutralizing immunity at a 1 μg dose, while AMG1541 gave neutralizing immunity with as little was 10 ng of mRNA (FIG. 13H). Not only was AMG1541 able to generate neutralizing immunity at a very low dose, the binding and neutralizing antibody titers were equivalent in mice vaccinated with AMG1541 at a […] as those with SM-102 at a […] (FIG. 13H).
HAI Assay. HAI assays were performed by IBT bioservices. Viral titers were standardized by defining one HA unit as the amount of inactivated influenza A/Tasmania/503/2020 virus required to completely hemagglutinate an equal volume of 1% turkey red blood cells (TRBCs) (Lampire). Serum was heat inactivated at 56° C. then receptor destroying enzyme (RDE) (DENKA) was added to the serum and incubated at 37° C. for 20 hrs. RDE was then deactivated at 56° C. for 60 mins. Serum samples were then serially diluted in DPBS and 25 μL of diluted serum was added to a 96-well V bottom plate. Subsequently, four HA units of inactivated virus in 25 μL of DPBS were added to the diluted serum and incubated for 30 mins. at RT. 50 μL of a 1% (4×10^7 cells/mL) solution of turkey red blood cells (Lampire) was then added to the serum and virus mixture.

[4] = in vivo; cited from earlier work

| SMILES | ethanol solubility [1] | fold higher mRNA transfection in the liver and spleen compared to AMG1541 [2] [fold] | dose giving detectable neutralizing immunity [3] [µg] | time SM-102 remained detectable at the injection site [4] | time SM-102 remained detectable in the liver and spleen [4] |
| --- | --- | --- | --- | --- | --- |
| CCCCCCCCCCCCCC(=O)OCC(O)CN1CCCN(CC(O)COC(=O)CCCCCCCCCCCCC)CCN(CC(O)COC(=O)CCCCCCCCCCCCC)CCCN(CC(O)COC(=O)CCCCCCCCCCCCC)CC1 (mixture of isomers) [AMG10C14] | poor ethanol solubility |  |  |  |  |
| CCCCCCCCCCCOC(=O)CCCCCN(CCO)CCCCCCCC(=O)OC(CCCCCCCC)CCCCCCCC [SM-102, reference compound] |  | ~100 | 1 | at least 48 hours | at least 10 hours |
